# Measured values as given in a melting point compilation (Tetko et al.; mined from patent text by program, amines drawn as free bases though some values may be those of a salt).
row,Structure (SMILES),melting point
1,CC(=O)c1cc2c(cc1C)C(C)(C)CCC2(C)C,54 to 57 °C
2,CCOC(=O)c1nccn1CCCCc1ccc(OCc2coc(/C=C/c3ccccc3)n2)cc1,96 to 97 °C
3,Clc1ccc(C2(Cn3cncn3)CC(Cl)CO2)c(Cl)c1 (stereo unspecified),97 °C
4,CC(c1oc2ccccc2c(=O)c1-c1cccc(F)c1)n1nc(C#CCO)c2c(N)ncnc21 (stereo unspecified),171 to 173 °C
5,CCOc1cc([C@@H]2CC=CC[C@H]2[N+](=O)[O-])ccc1OC (racemic),66 to 67 °C
6,CCC(O)Cn1c(Cl)nc2ccccc21 (stereo unspecified),126 °C
7,CS(=O)(=O)c1ncc2cc(-c3ccccc3Cl)c(O)nc2n1,215 to 221 °C
8,CC(C)(C)c1cc(C(=O)NCc2cccc([N+](=O)[O-])c2)cc(C(C)(C)C)c1O,210 to 211 °C
9,CCN(CC)C(=O)n1ccc(S(=O)c2ccccc2Cl)n1 (stereo unspecified),54 to 56 °C
10,COC(=O)c1c(C(N)=O)[nH]c(-c2ccccc2)c1N,177 to 179 °C
11,O=C1c2ccc3c4cccc5cccc(c6ccc(c2c36)C(=O)N1CCO)c54,> 260 °C
12,O=C(c1ccc(Br)cc1)c1ccc2cc[nH]c2c1,47 to 49 °C
13,C(=C1\CN2CCC1CC2)/N1c2ccccc2Sc2ccccc21,149 to 153 °C
14,CCOC(=O)C(=NOC)C(C)=NNC(C)=O,190 to 192 °C
15,COc1ccc2ncc3c(c2c1)[C@@H](O)C(OC)(OC)C[C@@H]3C,135 to 136 °C
16,Oc1cccc2oc(Cc3cccc(C(F)(F)F)c3)nc12,157 to 158 °C
17,BrCc1nc(-c2ccccc2)cc2ccccc12,84 °C
18,C=CCN1C(=O)C(C)(CN2CCN(c3ccccc3OC)CC2)N=C1c1cccnc1 (stereo unspecified),66 to 69 °C
19,Cc1ccc(S(=O)(=O)Nc2ccc(N)c([N+](=O)[O-])c2)cc1,146 °C
20,COc1cccc2c1C13CCN(CC4CC4)C(C2)C1(O)CCC(=O)C3 (stereo unspecified),133 to 135 °C
21,CCn1nc(-c2c(-c3ccccc3)nn3ccc(OC)cc23)ccc1=O,148 to 149 °C
22,COc1cccc2c1C(=O)c1ccccc1C2(CC(=O)O)CC(=O)O,239 to 243 °C
23,OCc1ccc(OCc2ccccc2)cn1,66 to 68 °C
24,CCCCc1nc(C(O)C(C)C)c(C(N)=O)n1Cc1ccc(-c2ccccc2C(=O)O)cc1 (stereo unspecified),> 131 °C
25,O=C(O)c1ccccc1Sc1ccc([N+](=O)[O-])cc1[N+](=O)[O-],179 to 181 °C
26,CCOCCOc1ccc(COc2cnn(C(C)(C)C)c(=O)c2Cl)cc1,82 to 83 °C
27,CC(=O)On1cnc2c(Br)csc2c1=O,159 to 162 °C

row,Structure (SMILES),melting point
1,CCSC1CCC(=O)N1S(=O)(=O)c1ccccc1 (stereo unspecified),100 to 113 °C
2,O=C(c1ccc([N+](=O)[O-])cc1)N1Cc2ccccc2Sc2ccccc21,147 to 149 °C
3,CCCc1cc2cc(O)ccc2c(Oc2ccc(/C=C/C(=O)O)cc2)c1-c1ccccc1,120 to 122 °C
4,O=c1ccc(C(c2ccc(Cl)cc2)c2ccc(Cl)cc2)c[nH]1,211 to 215 °C
5,COC(=O)COc1ccc2cc(CNC(=O)OC(C)(C)C)ccc2c1Br,96 to 100 °C
6,CCCCCCCCCCCCCCCCCC(=O)NCCO,96 to 99 °C
7,O=C(N[C@H]1CCC(=O)N2CCC[C@@H](C(=O)O)N2C1=O)OCC1c2ccccc2-c2ccccc21,120 to 126 °C
8,COc1cc(NC(C)=O)ccc1N1CCN(CCCNc2c(C)c(=O)n(C)c(=O)n2C)CC1,178 to 180 °C
9,CC(C)P1(=O)c2ccccc2CN1Cc1ccccc1 (stereo unspecified),145 to 147 °C
10,c1ccc(C(Oc2ccc(-c3nc(COc4ccc(CCCn5ccnc5)cc4)co3)cc2)c2ccccc2)cc1,106 to 107 °C
11,OCc1ccc(-c2c3ccccc3nn2Cc2ccccc2)cc1,148 to 149 °C
12,CCOC(=O)CC(=O)c1cc(F)c(F)c(F)c1F,47 to 49 °C
13,Fc1ccc(F)c(CN2CCNc3ncc(I)cc32)c1,175 °C
14,OCCCCCCCCCCCCCCCCCCCCO,93 °C
15,Nc1ncc(Cl)cc1O,196 to 201 °C
16,CN(C(=O)c1cc(C(F)(F)F)cc(C(F)(F)F)c1)C(CC(=O)O)Cc1ccc2ccccc2c1 (stereo unspecified),128 to 130 °C
17,CC(C)(C)CN1C(=O)C(=O)N(c2ccc(C#N)cc2)C1=S,128 to 129 °C
18,O=C(O)C1CCNC2CCCCC21 (stereo unspecified),> 300 °C
19,O=C(NC1CC1)c1cccc(-c2ccc3c(c2)C(Oc2ccc(Cl)cc2Cl)CC3)c1 (stereo unspecified),179 to 180 °C
20,CCOC(=O)c1c(-c2ccc(F)cc2)cc(-c2ccccc2Cc2ccccc2)nc1C(C)C,94 to 97 °C
21,Nc1ccc(Oc2ccc(C3(c4ccc(Oc5ccc(N)c(O)c5)cc4)C4CC5CC(C4)CC3C5)cc2)cc1O,> 160 °C
22,CCCCc1nc2cccc(CC#N)c2n1Cc1ccc(-c2ccccc2C#N)cc1,180 to 181 °C
23,CCOC(=O)C1(C(=O)O)CN(C2CC2)c2nc3cc(N4CC(N)C4C)c(F)cc3cc2C1=O (stereo unspecified),170 °C
24,CC1(C)Cc2cccc(OCC3CO3)c2O1 (stereo unspecified),51 to 52 °C
25,Cc1ccccc1CCNC(=O)c1ccc(Cl)cc1,95 to 96 °C
26,Cc1cc2c(c3ccc(=O)[nH]c13)OC(COS(C)(=O)=O)C2 (stereo unspecified),200 to 203 °C
27,NN=C1c2ccccc2-c2ccc(F)cc21,161 to 165 °C

# The next lines start with the values.
row,melting point,Structure (SMILES)
1,242 °C,CC(C)(C)OC(=O)N1CCN(c2ccc(-c3[nH]nc4c3C(=O)c3c(NC(=O)NN5CCOCC5)cccc3-4)cc2)CC1
2,206 to 208 °C,COc1ccc(C(=O)C=Cc2cc(O)c(O)c([N+](=O)[O-])c2)cc1OC
3,259 to 262 °C,Cn1ncc(C(=O)N2CC(F)C2)c1C(=O)Nc1ccn2nc(-c3ccccc3)nc2c1
4,124 to 126 °C,CCOC(=O)C1=CC2(CCC1S(=O)(=O)Nc1ccc(F)cc1Cl)OC(CC)C(CC)(CC)O2 (stereo unspecified)
5,77 to 79 °C,CC(C)N(C=Nc1ccncc1O)C(C)C
6,75 to 78 °C,CCc1nn(-c2c(Cl)cc(C(F)(F)F)cc2Cl)c(Cl)c1-c1nc(C#N)c(C#N)[nH]1
7,107 °C,O=C(O)[C@@H]1CCCN1S(=O)(=O)c1cc(Cl)cc(Cl)c1O
8,184 °C,CC(C)n1c(=O)n(C(=O)NCC2(O)CCN(CC3(C(=O)O)CCCCC3)CC2)c2ccccc21
9,255 to 258 °C,NC(=O)c1c(F)ccc(OCc2nc3cc(-c4ccncc4)ccc3s2)c1F
10,81 to 86 °C,CCCN(c1ccncc1)n1cc(C(C)=O)c2ccccc21
11,172 to 175 °C,O=S(=O)(c1ccccc1)n1cnc(-c2ccc(F)cc2)c1-c1ccc(F)cc1
12,152 to 155 °C,COc1ccc2c(c1)C(=O)C(O)=C([N+](=O)[O-])C2=O
13,197 to 200 °C,O=C(NCSc1ncnc2nc[nH]c12)c1ccccc1
14,274 °C,Cc1nc(NC(=O)c2cnn3c(C(F)(F)F)cc(-c4ccc(C(F)(F)F)c(Cl)c4)nc23)sc1S(=O)(=O)NC(C)(C)CO
15,208 °C,C#CCOc1ccc(S(=O)(=O)C2(C(=O)O)CCN(Cc3ccc(OC)cc3)CC2)cc1
16,158 to 160 °C,CC1(C)CC(C)(C)CC2(CCC(=O)N2)C1
17,143 to 145 °C,NC(=O)c1cc(NCc2c(F)c(F)c(C(F)(F)F)c(F)c2F)ccc1O
18,92 to 94 °C,O=Cc1ccc2c(c1F)OC(c1ccccc1)(c1ccccc1)O2
19,205 to 206 °C,O=C1c2ccccc2C(=O)N1CCCn1cc(S(=O)(=O)c2ccccc2)c2ccccc21
20,103 to 104 °C,CC(C(=O)O)c1ccc2c(c1)CCc1ccccc1S2 (stereo unspecified)
21,269 to 275 °C,Cc1cc2n(n1)C(c1cccc([N+](=O)[O-])c1)N=N2 (stereo unspecified)
22,145 °C,CCOC(=O)c1nn(C)cc1-c1ccccc1
23,163 to 165 °C,CCN1CCN(C(C(=O)N(C)CCO)c2ccc(Nc3nc(-c4cccc(NC(=O)c5cc6c(s5)CCCCC6)c4C)cn(C)c3=O)cc2)CC1 (stereo unspecified)
24,49.5 to 50 °C,CCSCCCCCSCCCCC(=O)O

row,melting point,Structure (SMILES)
1,210 to 211 °C,Cc1ccc(C2=NNC(=O)CC2)c(O)c1
2,256 to 258 °C,Cc1nnc2ccc(-c3cccc(NC(=O)C(C)(C)C)c3)nn12
3,49 to 50 °C,CCCC(=O)COS(=O)(=O)c1c(C)cc(C)c(C)c1C
4,68 to 70 °C,Cc1cc(Oc2ccc(C(F)(F)F)cc2[N+](=O)[O-])nn1C(=O)OC(C)(C)C
5,158 to 159 °C,CC1(C)OC(=O)Nc2ccc(-c3cccc(Cl)c3)cc21
6,151 °C,O=C(NCCO)c1cc(C(=O)NCCO)cc([N+](=O)[O-])c1
7,145 to 149 °C,CCOC(=O)OC1=C([C@H]2CC[C@H](c3ccc(Cl)cc3)CC2)C(=O)c2ccccc2C1=O
8,188 to 189 °C,COc1cc(COc2nn(-c3ccccc3)cc2/C=C/C(=O)O)ccc1OCc1nc(-c2ccccc2)oc1C
9,145 to 146 °C,CCCn1c(=O)c2[nH]c(C(CO)Cc3ccccc3)nc2n(CCC)c1=O (stereo unspecified)
10,193 to 194 °C,CC(C)(C)c1ccc(CCCC(=O)CC2CCCCC2)cc1NC(=O)CC1c2ccccc2Oc2ccccc21
11,143 °C,CS(=O)c1nn(Cc2cccc(C(F)(F)F)c2)c(N)c1C#N (stereo unspecified)
12,62 to 67 °C,N#Cc1ccc(OCC(F)(F)F)c(F)c1
13,109 to 114 °C,Nc1ccnn1-c1c(Cl)cc(C(F)(F)F)c(Cl)c1Cl
14,78 to 80 °C,N#Cc1ccc(OCC(O)CCCl)cc1 (stereo unspecified)
15,81 °C,COC(=O)[C@@H]1CCCCN1S(=O)(=O)c1ccc(Cl)c(COc2cccc3c(-n4ccnc4)cc(C)nc23)c1Cl
16,205 to 206 °C,COC(=O)c1ccc(-c2cc(-c3ccccc3)no2)cc1
17,164 to 166 °C,CCN(CC)CCc1nc(-c2ccc(OC)c(OC)c2)c2cc(OC)c(OC)cc2n1
18,152 to 154 °C,COCc1c(S(C)(=O)=O)ccc(C(=O)C2SCCCC2=O)c1C (stereo unspecified)
19,184 to 187 °C,CC(O)c1cc(I)cc(S(N)(=O)=O)c1 (stereo unspecified)
20,135 to 137 °C,CN1CC(CCCl)Oc2ccc(F)cc2C1=S (stereo unspecified)
21,125 to 126 °C,O=C(COc1ccc([N+](=O)[O-])cc1)NCc1ccccc1
22,90 to 91 °C,COc1cc(COc2nn(Cc3ccccc3)cc2CO)ccc1OCc1nc(-c2ccccc2)oc1C
23,97 to 99 °C,CC(C)(C)OC(=O)NOCC(O)c1ccccc1 (stereo unspecified)
